Results: publication PMC12124432, “Antimicrobial Peptide‐Peptoid Macrocycles from the Polymyxin B2 Chemical Space” (Angewandte Chemie (International Ed. in English), 2025)
Values after ≈ are worked out from the molar mass of the structure shown. Bridge positions count the residues as written; N and C are the ends. Square brackets hold non-standard residues; d marks the D form. Peptide text beside a SMILES is read from it. * marks the point of attachment. N(3-phenylpropyl)Gly = O=C(O)CNCCCc1ccccc1; Gly(NCH2CH2Ph) = O=C(O)CNCCc1ccccc1; Gly(N-2-aminoethyl) = NCCNCC(=O)O; Gly(N(CH2)3NH2) = NCCCNCC(=O)O; Gly(N-cPent) = O=C(O)CNC1CCCC1; Heptanoyl = CCCCCCC(=O)*; Nphe = O=C(O)CNCc1ccccc1; Octanoyl = CCCCCCCC(=O)*; Dab = NCC[C@H](N)C(=O)O; NPrGly = CCCNCC(=O)O

Tests used:
[1] = Lipid vesicle (carboxyfluorescein) leakage assay; details: 10 µg mL^−1 compound, 10 mM Tris, 107 mM NaCl, pH 7.4, leakage observed after 220 s
Experimental: Figure S4. Cytotoxicity of selected compounds against HK-2 cells. The cells were treated with the compound at the desired concentration for 24 h and the viability was determined with an Alamar blue assay. Data of three experiments performed in triplicates were pooled and represented as barplots.
10. Lipid Vesicle Leakage Assay
5(6)-carboxyfluorescein (CF) was purchased from Sigma Aldrich. Egg Yolk Phosphatidylcholine (EYPC), Egg Yolk Phosphatidylglycerol (EYPG) and a Mini-Extruder were purchased from Avanti Polar Lipids.
Vesicles preparation. Egg yolk PC or egg yolk PG thin lipid layers were prepared by evaporating a solution of 100 mg EYPC or EYPG in 4 mL MeOH/CHCl3 (1:1) on a rotary evaporator at room temperature and then dried in vacuo overnight. The resulting film was then hydrated with 2 mL CF buffer (50 mM CF, 10 mM TRIS, 10 mM NaCl, pH 7.4) for 30 min, subjected to freeze-thaw cycles (7×) and extrusion (15×) through a polycarbonate membrane (pore size 100 nm). Extra vesicular components were removed by gel filtration (Sephadex G-50) with 10 mM TRIS, 107 mM NaCl, pH 7.4 buffer. Final conditions: ca. 2.5 mM EYPC or EYPG; inside: 50 mM CF, 10 mM TRIS, 10 mM NaCl, pH 7.4 buffer; outside: 10 mM TRIS, […]
Vesicle leakage assay. EYPC or EYPG vesicle stock solutions (37.5 μL) were diluted to 3000 μL with a buffer (10 mM TRIS, 107 mM NaCl, pH 7.4) in a thermostated fluorescence cuvette (25 °C) and gently stirred (final lipid concentration ca. 10 μg/mL for both EYPG and EYPC).
The desired volume of peptide (1 or 20 mg/mL stock in MilliQ water) was added at t = 45 s to obtain final concentrations of 10 and 50 or 200 μg/mL, and CF efflux was monitored at λem 517 nm (λex 492 nm) as a function of time. Finally, 30 μL of 1.2% Triton X-100 was added to the cuvette (0.012% final concentration) at t = 240 s to reach the maximum intensity.
Fluorescence intensities were then normalized to the maximal emission intensity using I(t) = (It − I0)⁄(I∞ − I0) where I0 = It at peptide addition and I∞ = It at saturation of […]

[2] = tested on: E. coli W3110; type: cell-based, Escherichia coli; details: for Effect of salt on antibacterial activity against E. coli: NaCl 0-300 mM in 12.5% Mueller-Hinton broth at pH 8.5; for MIC on E. coli, 0 mM NaCl / MIC on E. coli, 100 mM NaCl / MIC on E. coli, 200 mM NaCl / MIC on E. coli, 300 mM NaCl: W3110, pH 8.5
Experimental: Minimal Inhibitory Concentration (MIC)
Antimicrobial activity was assayed for all the peptide-peptoids against P. aeruginosa PAO1, K. pneumoniae NCTC418, E. coli W3110, A. baumannii ATCC 19606, methicillin-resistant S. aureus COL (MRSA) and for selected peptides on P. aeruginosa PA14, as well as the clinical isolates ZEM-1A and ZEM9A, K. pneumoniae OXA-48, Enterobacter cloacae, Stenotrophomonas maltophilia and Staphylococus epidermidis. To determine the Minimal Inhibitory Concentration (MIC), Broth Microdilution method was used. A colony of bacteria was picked and grown in LB medium overnight at 37 °C. The next day, the culture was then regrown in LB medium to log phase (OD600 = 0.6 to 0.8), which lasted approximately 4 hours, and diluted to an OD600 of 0.022 in the desired medium (full MH or 12.5% MH).
The compounds were prepared as stock solutions of 2 mg/mL in sterilized MilliQ deionized water and then diluted in the desired media (full MH or 12.5% MH) to reach the first concentration tested (32 μg/mL). The compounds were added to the first well of a 96-well sterile, round bottom microtiter plates in polystyrene (TPP®, untreated) and diluted serially by ½ in the desired media (full MH or 12.5% MH), to a final volume of 150 µL/well. To each well was finally added 4 µL of the diluted bacterial suspension (see above), corresponding to approximately 5×10^5 CFU. For each test, two columns of the plate were kept for sterility control (medium only), growth control (medium with bacterial inoculum, no compound). The positive control, Polymyxin B (starting with a concentration of 16 µg/mL) in MH medium with bacterial inoculums, was introduced in the two first lines of the plate. The plates were incubated at 37 °C for ca. 18 hours under static conditions. 15 µL of 3-(4,5-dimethylthiazol-2-yl)-2,5-diphenyltetrazolium bromide (MTT)[7] (1 mg/mL in sterilized MilliQ deionized water) were added to each well and the plates were incubated for 20-30 minutes at room temperature. The […]
minimal inhibitory concentration (MIC) was defined as the lowest concentration of the compound that inhibits the visible growth of the tested bacteria (yellow) with the unaided eye.
Minimal Hemolytic Concentration (MHC) […]
11. Minimal inhibitory in presence of salt
The same procedure as for the antibacterial activity measurements by minimal inhibitory concentration assay (MIC) was applied. The media, 12.5% Mueller-Hinton broth was this time supplemented with different salt concentrations (0, 100, 200 300 mM NaCl). […]
All data, in μg/mL, measured against P. aeruginosa PAO1, with or without addition of salt (NaCl). The values were measured in dilute medium (12.5% MH) and at slightly basic pH (pH = 8.5), after incubation for 16-20 h at 37 °C. Values represent two different duplicate MIC determinations.

| SMILES | Membrane disruptive activity, fluorescein leakage from EYPG and EYPC vesicles [1] | Effect of salt on antibacterial activity against E. coli [2] | MIC on E. coli, 0 mM NaCl [2] [µg/mL] | MIC on E. coli, 100 mM NaCl [2] [µg/mL] | MIC on E. coli, 200 mM NaCl [2] [µg/mL] | MIC on E. coli, 300 mM NaCl [2] [µg/mL] |
| --- | --- | --- | --- | --- | --- | --- |
| CCCCCCCC(=O)N(CCc1ccccc1)CC(=O)N[C@@H](CCCCN)C(=O)N[C@@H](CC(N)=O)C(=O)N[C@H]1CCNC(=O)[C@H](CCCCN)NC(=O)CN(CCCN)C(=O)[C@H](CCCCN)NC(=O)CN(CCC)C(=O)[C@H](CCCCN)NC1=O [EB12] (Octanoyl-[Gly(NCH2CH2Ph)]KN[Dab]K[NPrGly]K[Gly(N(CH2)3NH2)]K; lactam 4-C) | low membrane disruptive activity | inhibited by high salt concentrations | 1 (≈ 0.815 µM) | 2 (≈ 1.63 µM) | 4 (≈ 3.26 µM) | 16 (≈ 13 µM) |
| CCCCCCC(=O)N[C@H](C(=O)N(CCN)CC(=O)N(CCCc1ccccc1)CC(=O)N[C@H]1CCNC(=O)[C@H](CCCCN)NC(=O)CN(CCCN)C(=O)[C@H](CCCCN)NC(=O)CNC(=O)[C@H](CCCCN)NC1=O)C(C)C [EB13] (Heptanoyl-V[Gly(N-2-aminoethyl)][N(3-phenylpropyl)Gly][Dab]KGK[Gly(N(CH2)3NH2)]K; lactam 4-C) | low membrane disruptive activity | inhibited by high salt concentrations | 0.5 (≈ 0.438 µM) | 16 (≈ 14 µM) | > 64 | > 64 |
| CCCCCCCC(=O)N[C@@H](CCCCN)C(=O)N(CC(=O)N[C@@H](CCCCN)C(=O)N[C@H]1CCNC(=O)[C@H](CCCCN)NC(=O)CN(C2CCCC2)C(=O)CN(CCN)C(=O)[C@H](CCCCN)NC(=O)[C@H](CC(N)=O)NC1=O)Cc1ccccc1 [EB21] (Octanoyl-K[Nphe]K[Dab]NK[Gly(N-2-aminoethyl)][Gly(N-cPent)]K; lactam 4-C) | low membrane disruptive activity | inhibited by high salt concentrations | 1 (≈ 0.816 µM) | 16 (≈ 13.1 µM) | > 64 | > 64 |
